Measurements: patent US9155715B2, “Transdermal composition comprising tolterodine” (SK Chemicals Co., Ltd., priority 2009, dated 2015)

Key:
Assay type in all cases: physicochemical
[1] = Screening of antioxidant (tolterodine decomposition in H2O2 solution); settings: 25° C., 100 rpm, 2.5 days
Protocol: (§1) [Analytical Method] • Test solution: tolterodine (−0.5 mg/mL) • Mobile phase: 45:55 mixture solution of ammonium dihydrogen phosphate and methanol, pH 7.0 • HPLC condition: detector 220 nm, column ODS3 C-18
Tolterodine free base (500 mg) was mixed with ethanol (50 mL) in a 100 mL flask and 0.3% H2O2 solution was added thereto to a final volume of 100 mL.
Antioxidant, weighed 10 mg each, was added into two glass bottles. One bottle contained tolterodine and the antioxidant, while the other bottle contained only the antioxidant, which was prepared to exclude the peaks resulting from the decomposition of the antioxidant by H2O2.
Tolterodine solution (2 mL) or a 1:1 mixture solution of 0.3% H2O2 aqueous solution and ethanol (2 mL) were added to the two glass bottles containing the antioxidant. The bottles were agitated at 100 rpm and 25° C. for 2.5 days.

[2] = Stress decomposition test of tolterodine under heat conditions
Protocol: as §1
Tolterodine free base (25-30 mg) was weighed and added into four glass bottles which were then capped with plugs. Three of the glass bottles were placed in an oven preheated at 120° C. At 10 minutes, 20 minutes and 30 minutes, each glass bottle was taken out from the oven and was allowed to cool enough at room temperature. After adding methanol (100 mL) to the four glass bottles followed by ultrasonic extraction for 10 minutes, decomposed substances of tolterodine were quantitated by HPLC as in Reference Example 1.

[3] = Stress decomposition test of tolterodine under acidic/basic/oxidizing conditions; settings: for Total decomposed substances (peak area ratio of decomposed substances of tolterodine): 24 hours, HPLC
Protocol: Tolterodine free base (20 mg) was added respectively to three 100 mL flasks. Each of the above flasks was then added with 0.1 M HCl (5 mL), 0.1 M NaOH (5 mL) and 0.3% H2O2 solution (5 mL), respectively, added with methanol to a final volume of 20 mL and was subjected to ultrasonic extraction for 10 minutes.
Each sample was allowed to stand at room temperature for 24 hours and decomposed substances of tolterodine were quantitated by HPLC as follows.
as §1

[4] = tolterodine in ethanol/0.3% H2O2 with 10 mg of the named antioxidant

Row | Compound | Total decomposed substances (peak area ratio of decomposed substances of tolterodine) [1, 4] [%] | further results
1 | CC(=O)Oc1c(C)c(C)c2c(c1C)CC[C@@](C)(CCC[C@H](C)CCC[C@H](C)CCCC(C)C)O2 [(+)-α-Tocopherol acetate] | 23.56 | 
2 | COc1ccc(O)c(C(C)(C)C)c1 [Butylated hydroxyanisole (BHA), Butylated hydroxyanisole] | 23.87 | 
3 | O=C([O-])CN(CCN(CC(=O)[O-])CC(=O)[O-])CC(=O)[O-].[Ca+2].[Na+].[Na+] [Ethylenediaminetetraacetic acid calcium disodium salt] | 29.69 | 
4 | O=S([O-])[O-].[Na+].[Na+] [Sodium sulfite] | 5.67 | 
5 | O=S([O-])([O-])=S.[Na+].[Na+] [Sodium thiosulfate] | 1.94 | 
6 | Cl.N[C@@H](CS)C(=O)O [l-Cysteine HCl] |  | Total decomposed substances (peak area ratio of decomposed substances of tolterodine) ([1]; tolterodine in ethanol/0.3% H2O2 with 10 mg of the named antioxidant, HCl): 1.70%
7 | N[C@@H](CCC(=O)O)C(=O)O [l-Glutamic acid] | 1.52 | 
8 | O=C(O)C(O)C(O)C(=O)O (stereo not drawn) [l-Tartaric acid] | 1.44 | 
9 | Cc1ccc(O)c([C@H](CCN(C(C)C)C(C)C)c2ccccc2)c1 [tolterodine] |  | Total decomposed substances (peak area ratio of decomposed substances of tolterodine) ([2]; 120° C./0 min): 0.45%; Total decomposed substances (peak area ratio of decomposed substances of tolterodine) ([2]; 120° C./10 min): 0.59%; Total decomposed substances (peak area ratio of decomposed substances of tolterodine) ([2]; 120° C./20 min): 0.63%; Total decomposed substances (peak area ratio of decomposed substances of tolterodine) ([2]; 120° C./30 min): 0.78%; Total decomposed substances (peak area ratio of decomposed substances of tolterodine) ([1]; tolterodine in ethanol/0.3% H2O2, antioxidant: None): 26.08%; Total decomposed substances (peak area ratio of decomposed substances of tolterodine) ([3]; 0.1M HCl, room temperature): 0.59%; Total decomposed substances (peak area ratio of decomposed substances of tolterodine) ([3]; 0.1M NaOH, room temperature): 0.83%; Total decomposed substances (peak area ratio of decomposed substances of tolterodine) ([3]; 0.3% H2O2, room temperature): 4.74%; Production of decomposed substances of tolterodine under stress conditions (in words) ([3]; harsh oxidizing condition, compared with acid, base and heat): Much of decomposed substances of tolterodine were produced

Continued, in another order:

Row | Total decomposed substances (peak area ratio of decomposed substances of tolterodine) [1, 4] [%] | Compound | further results
10 | 1.39 | O=C(O)CC(O)C(=O)O (racemic) [d,l-Malic acid] | 
11 | 18.82 | Cc1cc(C(C)(C)C)c(O)c(C(C)(C)C)c1 [Butylated hydroxytoluene (BHT), Butylated hydroxytoluene] | 
12 | 1.46 | O=C(O)CC(O)(CC(=O)O)C(=O)O [Citric acid] | 
13 | 13.00 | CCOC(=O)c1cc(O)c(O)c(O)c1 [Ethyl gallate] | 
14 | 19.94 | CCCCCCCCCCCCOC(=O)c1cc(O)c(O)c(O)c1 [Lauryl gallate] | 
15 | 20.29 | Cc1c(C)c2c(c(C)c1O)CCC(C)(CCCC(C)CCCC(C)CCCC(C)C)O2 (stereo not drawn) [d,l-α-Tocopherol] | 
16 | 1.94 | CCCCCCCCCCCCCCCC(=O)OC[C@H](O)[C@H]1OC(=O)C(O)=C1O [l-Ascorbic acid 6-palmitate] | 
17 | 1.21 | O=C1O[C@H]([C@@H](O)CO)C(O)=C1O [l-Ascorbic acid] | 
18 | 15.97 | CCCCCCCCOC(=O)c1cc(O)c(O)c(O)c1 [n-Octyl gallate] | 
